According to patent US10588919B2, “Materials and methods for the treatment of vascular disease” (THE UNIVERSITY COURT OF THE UNIVERSITY OF EDINBURGH, priority 2015, dated 2020):

Columns and labels:
Format in all cases: cell-based, human
[1] = system: LncRNA 2 (SMILR) expression; test: MEKK1 and p38 inhibitor studies: LncRNA 2 (SMILR) expression by qRT-PCR in IL1α/PDGF-stimulated HSVSMC; settings: 24 h; for LncRNA 2 expression in the presence of IL1 and PDGF: HSVSMC, 60 minute pre-treatment, 10, 15 and 20 μM AZD6244, 5, 10 and 20 uM SB 203580; for induction of SMILR expression in response to PDGF and IL1α: VSMC, 60 min pre-treatment, AZD6244 5, 10 or 15 μM, SB203580
Procedure: For gene expression analysis, cDNA for mRNA analysis was obtained from total RNA using the Multiscribe Reverse Transcriptase (Life technologies, UK). qRT-PCR was performed using Power SYBR green (life technologies, UK) with custom PCR primers (Eurofins, MWG, Ebersberg, Germany) the specificity of these primers was confirmed by performing a melting curve and running their PCR produce on a gel (Table 1-primer sequences). Ubiquitin C (UBC) was selected as housekeeping gene due to its stability across all groups studied. Fold-changes were calculated using the 2^-ΔΔCt method (Livak and Schmittgen 2001-http://www.ncbi.nlm.nih.gov/pubmed/11846609; analysis of relative gene expression data using real-time quantitative PCR and the 2(-Delta Delta C(T)) method. Methods 2001;25;402-8). For inhibitor studies, […] were plated at 1×10^5 cells in 6 well plates and quiesced for 48 h. […] Cells were then stimulated with either 0.2% media or a combination of IL1α and PDGF for 24 hours for RNA quantification or western blot analysis.

SMILR (LncRNA 2) = test: dsiRNA-mediated knockdown of SMILR in HSVSMC, qRT-PCR
Procedure: (§1) For gene expression analysis, cDNA for mRNA analysis was obtained from total RNA using the Multiscribe Reverse Transcriptase (Life technologies, UK). qRT-PCR was performed using Power SYBR green (life technologies, UK) with custom PCR primers (Eurofins, MWG, Ebersberg, Germany) the specificity of these primers was confirmed by performing a melting curve and running their PCR produce on a gel (Table 1—primer sequences). Ubiquitin C (UBC) was selected as housekeeping gene due to its stability across all groups studied. Fold-changes were calculated using the 2^−ΔΔCt method (Livak and Schmittgen 2001—http://www.ncbi.nlm.nih.gov/pubmed/11846609; analysis of relative gene expression data using real-time quantitative PCR and the 2(-Delta Delta C(T)) method. Methods 2001;25;402-8). […] Following the 48 stimulation cells were RNA extracted as described earlier or fixed in 70% ethanol for EdU FACs analysis. EdU incorporation was visualized using Click-iT Alexa Fluor 594 according to the manufacturers protocol (Invitrogen).

HSVSMC proliferation = test: EdU incorporation (proliferation) of HSVSMC stimulated with IL1α/PDGF
[2] = system: interferon pathway (OAS1, IRF7); test: qRT-PCR of interferon response genes OAS1 and IRF7 after dsiRNA; settings: dsiRNA off target effects
Procedure: For gene expression analysis, cDNA for mRNA analysis was obtained from total RNA using the Multiscribe Reverse Transcriptase (Life technologies, UK). qRT-PCR was performed using Power SYBR green (life technologies, UK) with custom PCR primers (Eurofins, MWG, Ebersberg, Germany) the specificity of these primers was confirmed by performing a melting curve and running their PCR produce on a gel (Table 1—primer sequences). Ubiquitin C (UBC) was selected as housekeeping gene due to its stability across all groups studied. Fold-changes were calculated using the 2^−ΔΔCt method (Livak and Schmittgen 2001—http://www.ncbi.nlm.nih.gov/pubmed/11846609; analysis of relative gene expression data using real-time quantitative PCR and the 2(-Delta Delta C(T)) method. Methods 2001;25;402-8).

HAS2 = HAS2 expression by qRT-PCR in HSVSMC; settings: SMILR knockdown
Procedure: as §1

HAS2-AS1 = HAS2-AS1 expression by qRT-PCR in HSVSMC; settings: SMILR knockdown
Procedure: as §1

ZHX2 = ZHX2 expression by qRT-PCR in HSVSMC; settings: SMILR knockdown
Procedure: as §1

HAS1 = HAS1 expression by qRT-PCR in HSVSMC; settings: SMILR knockdown
Procedure: as §1

HAS3 = HAS3 expression by qRT-PCR in HSVSMC; settings: SMILR knockdown
Procedure: as §1

SMILR = test: RNA-FISH of SMILR transcripts in HSVSMC
From the text: Custom RNA-FISH tiled probe sets were generated to all exons of […] FISH utilises “branch tree” technology. Briefly, a target specific probe set, containing 40 oligo probes, hybridises to the target mRNA as 20 oligo pairs. Each oligo pair forms a required platform for assembly of the signal amplification structure (tree) through a series of sequential hybridisation steps. Each fully assembled structure, covers a space of 40-50 nt of the target RNA, and has the capacity for 400-fold signal amplification. Therefore, a typical RNA probe set (containing 20 oligo pairs) has the capacity to generate 8,000-fold signal amplification. Due to this technology the company confirms single-molecule RNA sensitivity, thus each fluorescent signal corresponds to an individual lncRNA molecule. Control SNORD3 and UBC were used as housekeepers to determine spatial location of LncRNA2 (Panomics, Affymetrix). RNA-FISH was performed according to manufacturer's instructions (ViewRNATM cell FISH) with minor modifications for both cell and tissue experiments. For cellular analysis […] were grown on 16mm coverslips to 80% confluency, washed in PBS and fixed in 4% paraformaldehyde supplemented with 1% glacial acetic acid. Following detergent QS permeablisation and 1:6000 protease digest coverslips were incubated with a combination of UBC and LncRNA 2 probe sets or UBC. […]

Molecule | LncRNA 2 expression in the presence of IL1 and PDGF [1] | induction of SMILR expression in response to PDGF and IL1α [1] | decrease in SMILR expression compared to dsiControl (SMILR (LncRNA 2); 25 nM dsiRNA, IL1α/PDGF 48 h) | LncRNA 2 (SMILR) expression after dsiRNA transfection (SMILR (LncRNA 2); IL1/PDGF, qRT-PCR) | VSMC proliferation reduced (EdU incorporation) (HSVSMC proliferation; SMILR knock down with dsiRNA, IL1/PDGF 48 h, vs Si Control) | SMC proliferation following stimulation with IL1/PDGF (EdU incorporation) (HSVSMC proliferation; dsiRNA mediated knockdown of LncRNA 2) | effect on the interferon pathway (response genes OAS1 and IRF7) [2] | HAS2 mRNA levels (HAS2) | HAS2 mRNA levels (HAS2; listed as SMILR siRNA) | HAS2-AS1 lncRNA expression (HAS2-AS1) | ZHX2 gene expression (ZHX2) | HAS1 expression (HAS1) | HAS3 expression (HAS3) | SMILR transcripts (RNA-FISH) (SMILR)
Cn1cnc2c(F)c(Nc3ccc(Br)cc3Cl)c(C(=O)NOCCO)cc21 [AZD6244] | completely inhibited | prevented the induction | – | – | – | – | – | – | – | – | – | – | – | –
C[S+]([O-])c1ccc(-c2nc(-c3ccncc3)c(-c3ccc(F)cc3)[nH]2)cc1 (stereo not shown) [SB 203580] | completely inhibited | dose-dependent reduction | – | – | – | – | – | – | – | – | – | – | – | –
DsiRNA SMILR: Double stranded dicer substrate siRNA targeting LncRNA 2 (SMILR); probably sense SEQ ID NO: 1, antisense SEQ ID NO: 2 (sense CCAUAAUUUACAUGGAUGUU; antisense UUCCAAACAUCCAUGUAAAUUAUGGAA; listed as RNA, chemistry not fully specified) | – | – | 75±24% | significant decrease | 56±15% | inhibited | No effect | significantly inhibits | significantly altered | no change | no change | no effect | no effect | decrease
